Measurements from patent US3954769A, “Dibenzo[b,f]thiepins” (Hoffman-La Roche Inc., priority 1973, dated 1976).
“Also recorded” adds a separate entry of the source.

Columns and labels:
[1] = system: homovanillinic acid (turnover of dopamine in the basal ganglions); experiment: Determination of homovanillinic acid (HVA), turnover of dopamine in brain; assay type: in vivo, rats; details: for activity in HVA test (in words): compared with chlorpromazine; for Increase in HVA, %: rats, two hours prior to being killed, titer in untreated rats set at 100%
Experimental: II. Determination of Homovanillinic Acid
Two hours prior to being killed, rats are injected with the test substance.
Thereafter, the homovanillinic acid is extracted from the supernatant portion of a homogenous mixture of the brains into butyl acetate and later into aqueous solution and is oxidized with potassium ferric cyanide to a fluorescent dimer. […] The homovanillinic acid titer in untreated rats is arbitrarily set at 100%.

mice = experiment: Determination of toxicity in mice (24-hour-values); assay type: in vivo; details: in words
Text: (§1) III. Determination of toxicity

[2] = Determination of toxicity in mice (24-hour-values); assay type: in vivo; details: mouse, in vivo, po, read-out: ED50 (toxicity)
Text: as §1

rats = experiment: Determination of cataleptic effect (undesired side effect); assay type: in vivo; details: in words
Experimental: (§2) I. Determination of cataleptic effect (undesired side effect)
(§3) A cataleptic effect ("wax-like rigidity", that is, abnormally long retention of an enforced body position) is considered to be a disturbing side effect with central depressants and neuroleptically active compounds and indicates motor disturbances. […] The following compounds were tested:
(§4) The test animals are considered to be cataleptic when the homolateral extremities remain in the crossed position for at least 10 seconds. The number of cataleptic animals is recorded every 30 minutes over a 6-hour period. The ED50 is the dose at which 50% of the animals are cataleptic.

[3] = as above; assay type: in vivo, rats; details: rat, in vivo, ip; rats, intraperitoneally; recorded every 30 minutes over a 6-hour period; read-out: ED50 (dose at which 50% of the animals are cataleptic)
Experimental: as §2, §3, §4

Structure (SMILES) | activity in HVA test (in words) [1] | Increase in HVA, % ([1]; 50 mg/kg. p.o.) [%] | toxicity (in words) (mice) | LD50 at 24 h [2] [mg/kg] | cataleptic effect (in words) (rats; maleate) | TD50 at 6 h [3] [mg/kg] | Increase in HVA, % ([1]; 20 mg/kg. p.o.) [%] | cataleptic effect (in words) (rats)
COc1ccc2c(c1)CC(N1CCN(C)CC1)c1cc(SC)ccc1S2.O=C(O)/C=C\C(=O)O (centres unmarked) [Product A, 1-[10,11-dihydro-2-methoxy-8-(methylthio)-dibenzo[b,f]thiepin-10-yl]-4-methylpiperazine maleate] | somewhat less active than chlorpromazine | 185 | superior to chlorpromazine | 1880 | no cataleptic effect; also recorded: complete absence of cataleptic side effect | > 100 | – | –
CN(C)CCCN1c2ccccc2Sc2ccc(Cl)cc21 [Chlorpromazine, reference compound] | – | – | – | – | – | – | 320 | does demonstrate cataleptic effects
CSc1ccc2c(c1)C(N1CCN(C)CC1)Cc1cc(C)ccc1S2.O=C(O)/C=C\C(=O)O (centres unmarked) [Product B, 1-[10,11-dihydro-2-methyl-8-(methylthio)-dibenzo[b,f]thiepin-10-yl]-4-methylpiperazine maleate] | nearly as potent as that of chlorpromazine | 320 | superior to chlorpromazine | 450 | considerably lower cataleptic effect than chlorpromazine; also recorded: superior to chlorpromazine due to the lower cataleptic side effect | 25 | – | –
